Results as given in the supplement of paper PMC10307832.

Experiments:
Experiment in all cases: relative viability (nuclei count vs DMSO), 5 days (fraction); higher = more cells survive
[1] = compound: O[C@@H](COc1cccc2ncccc12)CN1CCN([C@@H]2c3ccccc3[C@@H]3[C@H](c4ccccc42)C3(F)F)CC1 [Zosuquidar] + CS(=O)(=O)CCNCc1ccc(-c2ccc3ncnc(Nc4ccc(OCc5cccc(F)c5)c(Cl)c4)c3c2)o1 [Lapatinib] (partner 2 µM)
In short: (§1)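 Relative viability was taken as the ratio of nuclei in treated wells to nuclei in vehicle wells. Lung cancer cell lines in 1536-well plates received compounds by pin tool one day after seeding, either one drug alone or a fixed anchor-drug dose plus five library-drug doses (not always all listed) in √10 steps. Nuclei were counted on 4× images after 5 days of treatment, and values are medians of duplicate plates.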

[2] = compound: COc1cc2nccc(Oc3ccc(NC(=O)C4(C(=O)Nc5ccc(F)cc5)CC4)cc3)c2cc1OC [Cabozantinib] + Cc1nc(NC(=O)N2CCC[C@H]2C(N)=O)sc1-c1ccnc(C(C)(C)C(F)(F)F)c1 [Alpelisib] (partner 2 µM)
In short: as §1

[3] = compound: C1=CC(=CC=C1NC(=S)NNC2=C(C=C(C=C2[N+](=O)[O-])C(F)(F)F)[N+](=O)[O-])F [Kobe2602] + COc1cc2c(Oc3ccc(NC(=O)C4(C(=O)Nc5ccc(F)cc5)CC4)cc3F)ccnc2cc1OCCCN1CCOCC1 [Foretinib] (partner 0.25 µM)
In short: as §1

[4] = compound: C1=CC(=CC=C1NC(=S)NNC2=C(C=C(C=C2[N+](=O)[O-])C(F)(F)F)[N+](=O)[O-])F [Kobe2602] + CC1(C)CCC(c2ccc(Cl)cc2)=C(CN2CCN(c3ccc(C(=O)NS(=O)(=O)c4ccc(N[C@H](CCN5CCOCC5)CSc5ccccc5)c(S(=O)(=O)C(F)(F)F)c4)cc3)CC2)C1 [Navitoclax] (partner 0.5 µM)
In short: as §1

## UMC-11
[1]; first compound 0.01 µM
  relative viability: 0.895
[1]; first compound 0.03162 µM
  relative viability: 1.07
[1]; first compound 0.1 µM
  relative viability: 0.89
[1]; first compound 0.3162 µM
  relative viability: 1.14
[1]; first compound 1 µM
  relative viability: 0.96
[2]; first compound 0.02 µM
  relative viability: 0.848
[2]; first compound 0.06325 µM
  relative viability: 1.1
[2]; first compound 0.2 µM
  relative viability: 1.01
[2]; first compound 0.6325 µM
  relative viability: 1.05
[2]; first compound 2 µM
  relative viability: 1.02
[3]; first compound 0.2 µM
  relative viability: 1.03
[3]; first compound 0.6325 µM
  relative viability: 0.957
[3]; first compound 2 µM
  relative viability: 0.96
[3]; first compound 6.325 µM
  relative viability: 0.953
[3]; first compound 20 µM
  relative viability: 1.08
[4]; first compound 0.2 µM
  relative viability: 0.322
[4]; first compound 0.6325 µM
  relative viability: 0.327
[4]; first compound 2 µM
  relative viability: 0.292
[4]; first compound 6.325 µM
  relative viability: 0.312
[4]; first compound 20 µM
  relative viability: 0.316
